Results from the NIST ThermoML archive (doi:10.1016/j.fluid.2018.04.021).
± gives the expanded uncertainty stated by the source.

Details: Liquid; flow method with low residence time

SMILES	Critical pressure	Critical temperature
C1CCCCC1 [cyclohexane]	4074 ± 36 kPa	553.6 ± 0.4 K
CCOC(=O)OCC [diethyl carbonate]	3346 ± 30 kPa	578.1 ± 0.4 K
CCO [ethanol]	6141 ± 51 kPa	514 ± 0.4 K

Other lines, results leading:

Critical pressure	Critical temperature	SMILES
2736 ± 25 kPa	540.1 ± 0.4 K	CCCCCCC [heptane]
3033 ± 27 kPa	507.8 ± 0.4 K	CCCCCC [hexane]
2496 ± 24 kPa	568.9 ± 0.4 K	CCCCCCCC [octane]
